According to patent US4367339A, “Substituted N-nitroaniline compounds and inorganic and organic salts thereof useful for enhancing auxiliary branching, canopy flowering and crop yield of plant and as lodging inhibitors therefor” (priority 1980, dated 1983):
Counter-ions that a name gives are not always drawn.

Test system: barley (Hordeum vulgare, var. Georgie)
Assay: Antilodging effects on barley
Assay type: in vivo
Design: key to Tiller formation / Stem stiffness: 5 = no increase over controls, 3 = moderate significant increase
Settings: for Stem stiffness / Tiller formation: control 5; for Weight Fresh: control 49.1; for Height: control 53.1; for Phytotoxicity: three weeks after spraying; for Weight Dry: control 5.2
Experimental: In this experiment the procedure of Example 7 is repeated excepting that the crop used was barley (Hordeum vulgare, var. Georgie; European lodging prone variety). The plants are treated at the 3-4 leaf stage. Plants are watered prior to treatment and then sprayed to provide the kg/ha rate of test compound desired. After spraying the plants are placed on greenhouse benches and watered and fertilized in accordance with normal greenhouse procedures.
Three weeks after spraying the plants are measured and harvested. All treatments are replicated six times and companions are made against untreated controls.
The following rating system is used:
5=No increase over controls
3=Moderate, significant increase over controls.

With `Cn1c(-c2ccccc2)cc(-c2ccccc2)[n+]1C.O=[N+]([O-])[N-]c1cccc(Cl)c1Cl` [1,2-Dimethyl-3,5-diphenylpyrazolium salt with 2,3-dichloro-N--aci-nitroaniline] the Stem stiffness (rate 0.25 kg/ha) was 5 (No increase over controls), the Tiller formation (rate 0.25 kg/ha) was 5 (No increase over controls) and the “Weight Fresh” value (rate 0.25 kg/ha) was 51.2 g. For the same compound, the Height (rate 0.25 kg/ha) was 56.3 cm, the Phytotoxicity (rate 0.25 kg/ha) was 5 (No increase over controls) and the Stem stiffness (rate 0.5 kg/ha) was 5 (No increase over controls). For the same compound, the Tiller formation (rate 0.5 kg/ha) was 5 (No increase over controls), the “Weight Fresh” value (rate 0.5 kg/ha) was 52.6 g and the Height (rate 0.5 kg/ha) was 54.7 cm. For the same compound, the Phytotoxicity (rate 0.5 kg/ha) was 5 (No increase over controls), the Stem stiffness (rate 1.0 kg/ha) was 5 (No increase over controls) and the Tiller formation (rate 1.0 kg/ha) was 5 (No increase over controls). For the same compound, the “Weight Dry” value (rate 1.0 kg/ha) was 6.0 g, the “Weight Fresh” value (rate 1.0 kg/ha) was 57.3 g and the Height (rate 1.0 kg/ha) was 55.5 cm. For the same compound, the Phytotoxicity (rate 1.0 kg/ha) was 5 (No increase over controls).

With `N#Cc1ccc(N[N+](=O)[O-])c(Br)c1` [2-Bromo-4-cyano-N--nitroaniline] the Stem stiffness (rate 0.25 kg/ha) was 5 (No increase over controls), the Tiller formation (rate 0.25 kg/ha) was 4 and the “Weight Dry” value (rate 0.25 kg/ha) was 7.4 g. The “Weight Fresh” value (rate 0.25 kg/ha) was 62.2 g, the Height (rate 0.25 kg/ha) was 53.0 cm and the Phytotoxicity (rate 0.25 kg/ha) was 5 (No increase over controls). For the same compound, the Stem stiffness (rate 0.5 kg/ha) was 5 (No increase over controls), the Tiller formation (rate 0.5 kg/ha) was 4 and the “Weight Dry” value (rate 0.5 kg/ha) was 7.0 g. For the same compound, the “Weight Fresh” value (rate 0.5 kg/ha) was 59.2 g, the Height (rate 0.5 kg/ha) was 53.3 cm and the Phytotoxicity (rate 0.5 kg/ha) was 5 (No increase over controls). For the same compound, the Stem stiffness (rate 1.0 kg/ha) was 5 (No increase over controls), the Tiller formation (rate 1.0 kg/ha) was 5 (No increase over controls) and the “Weight Dry” value (rate 1.0 kg/ha) was 7.0 g. The “Weight Fresh” value (rate 1.0 kg/ha) was 60.9 g, the Height (rate 1.0 kg/ha) was 53.2 cm and the Phytotoxicity (rate 1.0 kg/ha) was 5 (No increase over controls).

For `CCc1cccc(C(C)C)c1N[N+](=O)[O-]` [Tallowamine compound with 2-ethyl-6-isopropyl-N--nitroanilin] [Tallowamine compound with 2-ethyl-6-isopropyl-N--nitroaniline], the Stem stiffness (rate 0.25 kg/ha) was 4, the Tiller formation (rate 0.25 kg/ha) was 4 and the “Weight Fresh” value (rate 0.25 kg/ha) was 49.2 g. For the same compound, the Height (rate 0.25 kg/ha) was 45.0 cm, the Phytotoxicity (rate 0.25 kg/ha) was 5 (No increase over controls) and the Stem stiffness (rate 0.5 kg/ha) was 4. For the same compound, the Tiller formation (rate 0.5 kg/ha) was 4, the “Weight Fresh” value (rate 0.5 kg/ha) was 47.1 g and the Height (rate 0.5 kg/ha) was 41.7 cm. The Phytotoxicity (rate 0.5 kg/ha) was 5 (No increase over controls), the Stem stiffness (rate 1.0 kg/ha) was 4 and the Tiller formation (rate 1.0 kg/ha) was 4. The “Weight Fresh” value (rate 1.0 kg/ha) was 52.4 g, the Height (rate 1.0 kg/ha) was 45.7 cm and the Phytotoxicity (rate 1.0 kg/ha) was 5 (No increase over controls).

With `CCc1cccc(C(C)C)c1N[N+](=O)[O-]` [2-Ethyl-6-isopropyl-N--nitroaniline] the Stem stiffness (rate 0.25 kg/ha) was 4, the Tiller formation (rate 0.25 kg/ha) was 4 and the “Weight Fresh” value (rate 0.25 kg/ha) was 50.5 g. The Height (rate 0.25 kg/ha) was 47.7 cm, the Phytotoxicity (rate 0.25 kg/ha) was 5 (No increase over controls) and the Stem stiffness (rate 0.5 kg/ha) was 4. For the same compound, the Tiller formation (rate 0.5 kg/ha) was 3 (Moderate, significant increase over controls.), the “Weight Dry” value (rate 0.5 kg/ha) was 5.9 g and the “Weight Fresh” value (rate 0.5 kg/ha) was 59.3 g. For the same compound, the Height (rate 0.5 kg/ha) was 48.7 cm, the Phytotoxicity (rate 0.5 kg/ha) was 5 (No increase over controls) and the Stem stiffness (rate 1.0 kg/ha) was 4. For the same compound, the Tiller formation (rate 1.0 kg/ha) was 4, the “Weight Dry” value (rate 1.0 kg/ha) was 5.4 g and the “Weight Fresh” value (rate 1.0 kg/ha) was 56.5 g. The Height (rate 1.0 kg/ha) was 51.0 cm and the Phytotoxicity (rate 1.0 kg/ha) was 5 (No increase over controls).

`O=[N+]([O-])Nc1ccc(Br)cc1Br` [2,4-Dibromo-N--nitroaniline] was tested, and the Stem stiffness (rate 0.25 kg/ha) was 3 (Moderate, significant increase over controls.), the Tiller formation (rate 0.25 kg/ha) was 4 and the “Weight Dry” value (rate 0.25 kg/ha) was 7.8 g. For the same compound, the “Weight Fresh” value (rate 0.25 kg/ha) was 63.5 g, the Height (rate 0.25 kg/ha) was 54.7 cm and the Phytotoxicity (rate 0.25 kg/ha) was 5 (No increase over controls). For the same compound, the Stem stiffness (rate 0.5 kg/ha) was 5 (No increase over controls), the Tiller formation (rate 0.5 kg/ha) was 5 (No increase over controls) and the “Weight Dry” value (rate 0.5 kg/ha) was 6.7 g. For the same compound, the “Weight Fresh” value (rate 0.5 kg/ha) was 56.3 g, the Height (rate 0.5 kg/ha) was 56.0 cm and the Phytotoxicity (rate 0.5 kg/ha) was 5 (No increase over controls). For the same compound, the Stem stiffness (rate 1.0 kg/ha) was 5 (No increase over controls), the Tiller formation (rate 1.0 kg/ha) was 5 (No increase over controls) and the “Weight Fresh” value (rate 1.0 kg/ha) was 46.4 g. For the same compound, the Height (rate 1.0 kg/ha) was 53.3 cm and the Phytotoxicity (rate 1.0 kg/ha) was 5 (No increase over controls).

`O=[N+]([O-])N(F)c1c(Br)cccc1Br` [2,6-Dibromo-N--fluoro-N--nitroaniline] was tested, and the Stem stiffness (rate 0.25 kg/ha) was 4, the Tiller formation (rate 0.25 kg/ha) was 4 and the “Weight Dry” value (rate 0.25 kg/ha) was 6.0 g. The “Weight Fresh” value (rate 0.25 kg/ha) was 57.8 g, the Height (rate 0.25 kg/ha) was 52.0 cm and the Phytotoxicity (rate 0.25 kg/ha) was 5 (No increase over controls). For the same compound, the Stem stiffness (rate 0.5 kg/ha) was 5 (No increase over controls), the Tiller formation (rate 0.5 kg/ha) was 5 (No increase over controls) and the “Weight Fresh” value (rate 0.5 kg/ha) was 52.6 g. The Height (rate 0.5 kg/ha) was 51.0 cm, the Phytotoxicity (rate 0.5 kg/ha) was 5 (No increase over controls) and the Stem stiffness (rate 1.0 kg/ha) was 5 (No increase over controls). The Tiller formation (rate 1.0 kg/ha) was 4, the “Weight Fresh” value (rate 1.0 kg/ha) was 49.2 g and the Height (rate 1.0 kg/ha) was 45.2 cm. The Phytotoxicity (rate 1.0 kg/ha) was 5 (No increase over controls).

With `Cn1c(-c2ccccc2)cc(-c2ccccc2)[n+]1C.O=[N+]([O-])[N-]c1ccccc1Br` [1,2-Dimethyl-3,5-diphenylpyrazolium salt with 2-Bromo-N--aci-nitroaniline] the Stem stiffness (rate 0.25 kg/ha) was 4, the Tiller formation (rate 0.25 kg/ha) was 4 and the “Weight Fresh” value (rate 0.25 kg/ha) was 51.0 g. For the same compound, the Height (rate 0.25 kg/ha) was 52.5 cm, the Phytotoxicity (rate 0.25 kg/ha) was 5 (No increase over controls) and the Stem stiffness (rate 0.5 kg/ha) was 5 (No increase over controls). The Tiller formation (rate 0.5 kg/ha) was 5 (No increase over controls), the “Weight Fresh” value (rate 0.5 kg/ha) was 53.5 g and the Height (rate 0.5 kg/ha) was 50.6 cm. For the same compound, the Phytotoxicity (rate 0.5 kg/ha) was 5 (No increase over controls), the Stem stiffness (rate 1.0 kg/ha) was 5 (No increase over controls) and the Tiller formation (rate 1.0 kg/ha) was 5 (No increase over controls). For the same compound, the “Weight Fresh” value (rate 1.0 kg/ha) was 47.4 g, the Height (rate 1.0 kg/ha) was 50.0 cm and the Phytotoxicity (rate 1.0 kg/ha) was 5 (No increase over controls).

For `O=[N+]([O-])Nc1cccc(Cl)c1Cl` [Sodium salt with 2,3-dichloro-N--nitroaniline], the Stem stiffness (rate 0.25 kg/ha) was 5 (No increase over controls), the Tiller formation (rate 0.25 kg/ha) was 5 (No increase over controls) and the “Weight Dry” value (rate 0.25 kg/ha) was 8.2 g. For the same compound, the “Weight Fresh” value (rate 0.25 kg/ha) was 60.9 g, the Height (rate 0.25 kg/ha) was 53.3 cm and the Phytotoxicity (rate 0.25 kg/ha) was 5 (No increase over controls). The Stem stiffness (rate 0.5 kg/ha) was 5 (No increase over controls), the Tiller formation (rate 0.5 kg/ha) was 5 (No increase over controls) and the “Weight Dry” value (rate 0.5 kg/ha) was 7.1 g. For the same compound, the “Weight Fresh” value (rate 0.5 kg/ha) was 58.7 g, the Height (rate 0.5 kg/ha) was 53.8 cm and the Phytotoxicity (rate 0.5 kg/ha) was 5 (No increase over controls). The Stem stiffness (rate 1.0 kg/ha) was 5 (No increase over controls), the Tiller formation (rate 1.0 kg/ha) was 5 (No increase over controls) and the “Weight Dry” value (rate 1.0 kg/ha) was 6.0 g. For the same compound, the “Weight Fresh” value (rate 1.0 kg/ha) was 57.5 g, the Height (rate 1.0 kg/ha) was 52.2 cm and the Phytotoxicity (rate 1.0 kg/ha) was 5 (No increase over controls).

In the case of `Cc1cc(C)c(N[N+](=O)[O-])c(I)c1` [2-Iodo-4,6-dimethyl-N--nitroaniline], the Stem stiffness (rate 0.25 kg/ha) is reported as 5 (No increase over controls), the Tiller formation (rate 0.25 kg/ha) is reported as 5 (No increase over controls) and the “Weight Fresh” value (rate 0.25 kg/ha) is reported as 54.1 g. For the same compound, the Height (rate 0.25 kg/ha) was 52.7 cm, the Phytotoxicity (rate 0.25 kg/ha) was 5 (No increase over controls) and the Stem stiffness (rate 0.5 kg/ha) was 5 (No increase over controls). For the same compound, the Tiller formation (rate 0.5 kg/ha) was 5 (No increase over controls), the “Weight Fresh” value (rate 0.5 kg/ha) was 52.7 g and the Height (rate 0.5 kg/ha) was 52.5 cm. For the same compound, the Phytotoxicity (rate 0.5 kg/ha) was 5 (No increase over controls), the Stem stiffness (rate 1.0 kg/ha) was 5 (No increase over controls) and the Tiller formation (rate 1.0 kg/ha) was 5 (No increase over controls). For the same compound, the “Weight Dry” value (rate 1.0 kg/ha) was 6.2 g, the “Weight Fresh” value (rate 1.0 kg/ha) was 58.0 g and the Height (rate 1.0 kg/ha) was 53.5 cm. The Phytotoxicity (rate 1.0 kg/ha) was 5 (No increase over controls).

In the case of `O=[N+]([O-])Nc1c(Br)cccc1Br` [Tallowamine compound with 2,6-dibromo-N--nitroaniline], the Stem stiffness (rate 0.25 kg/ha) is reported as 4, the Tiller formation (rate 0.25 kg/ha) is reported as 5 (No increase over controls) and the “Weight Dry” value (rate 0.25 kg/ha) is reported as 6.8 g. The “Weight Fresh” value (rate 0.25 kg/ha) was 62.3 g, the Height (rate 0.25 kg/ha) was 54.7 cm and the Phytotoxicity (rate 0.25 kg/ha) was 5 (No increase over controls). The Stem stiffness (rate 0.5 kg/ha) was 4, the Tiller formation (rate 0.5 kg/ha) was 4 and the “Weight Dry” value (rate 0.5 kg/ha) was 7.5 g. The “Weight Fresh” value (rate 0.5 kg/ha) was 60.1 g, the Height (rate 0.5 kg/ha) was 48.5 cm and the Phytotoxicity (rate 0.5 kg/ha) was 5 (No increase over controls). The Stem stiffness (rate 1.0 kg/ha) was 4, the Tiller formation (rate 1.0 kg/ha) was 4 and the “Weight Fresh” value (rate 1.0 kg/ha) was 55.9 g. The Height (rate 1.0 kg/ha) was 48.7 cm and the Phytotoxicity (rate 1.0 kg/ha) was 5 (No increase over controls).

`O=[N+]([O-])Nc1c(Br)cccc1Br` [2,6-Dibromo-N--nitroaniline] was tested, and the Stem stiffness (rate 0.25 kg/ha) was 4, the Tiller formation (rate 0.25 kg/ha) was 4 and the “Weight Dry” value (rate 0.25 kg/ha) was 6.2 g. The “Weight Fresh” value (rate 0.25 kg/ha) was 58.3 g, the Height (rate 0.25 kg/ha) was 50.5 cm and the Phytotoxicity (rate 0.25 kg/ha) was 5 (No increase over controls). For the same compound, the Stem stiffness (rate 0.5 kg/ha) was 4, the Tiller formation (rate 0.5 kg/ha) was 3 (Moderate, significant increase over controls.) and the “Weight Dry” value (rate 0.5 kg/ha) was 6.9 g. The “Weight Fresh” value (rate 0.5 kg/ha) was 67.5 g, the Height (rate 0.5 kg/ha) was 53.0 cm and the Phytotoxicity (rate 0.5 kg/ha) was 5 (No increase over controls). For the same compound, the Stem stiffness (rate 1.0 kg/ha) was 4, the Tiller formation (rate 1.0 kg/ha) was 3 (Moderate, significant increase over controls.) and the “Weight Dry” value (rate 1.0 kg/ha) was 5.4 g. For the same compound, the “Weight Fresh” value (rate 1.0 kg/ha) was 55.8 g, the Height (rate 1.0 kg/ha) was 48.3 cm and the Phytotoxicity (rate 1.0 kg/ha) was 5 (No increase over controls).
